According to publication PMC5702336, “Critical Role of Hepatic Cyp450s in the Testis-Specific Toxicity of (5R)-5-Hydroxytriptolide in C57BL/6 Mice” (Frontiers in Pharmacology, 2017):
Entries after “also recorded” stand apart in the source; their conditions may differ.

Legend:
[1] = system: rat liver microsomes; test: Chemical inhibition study of LLDT-8 metabolism with selective CYP inhibitors; assay type: in vitro ADME; settings: LLDT-8 2 μM, 0.5 and 1 h, residual LLDT-8 by LC-MS/MS
Description: The chemical inhibition assay was performed as previously reported (Li et al., [2008]). A 400 μl typical incubation mixture contained 0.2 mg rat liver microsomes (20 mg/ml, Cat. No: LM-DS-02M, Lot. No: BDVH, Research Institute for liver Diseases, Shanghai, China), 2 μM LLDT-8, 5 mM MgCl2, 1 mM NADPH (Cat. No: 10107824001, Lot. No: 20595625, Sigma, USA) and selective inhibitors of each CYP isoforms in a 100 mM phosphate buffer (pH 7.4). The inhibitors used were as follows: quercetin (2 μM) for CYP1A and CYP2C8, 8-methoxypsoralen (2.5 μM) for CYP2A6, sulfaphenazole (10 μM) for CYP2C9, omeprazole (20 μM) for CYP2C19, quinidine (10 μM) for CYP2D6, clomethiazole (50 μM) for CYP2E1, ketoconazole (1 μM) for CYP3A4 and aminobenzotriazole (50 μM, a broad CYP inhibitor) (Tsyrlov et al., [1994]; Li et al., [2008]). After incubation for 0, 0.5, and 1 h, 100 μl supernatant was collected and quenched by the addition of 100 μl of ice-cold acetonitrile. The mixtures were then centrifuged for 10 min at 20,000 × g. An aliquot of the supernatant was analyzed by LC-MS/MS to monitor the residual LLDT-8 without extraction.

[2] = system: mice testes; test: Testicular toxicity comparison between triptolide and LLDT-8 (15 days by gavage, H&E); assay type: in vivo, mouse; settings: 0.25 mg/kg and 0.5 mg/kg by gavage for 15 days
Description: For toxicity experiments, mice (n = 3 for each group) were treated with tritpilide (0.125, 0.25, 0.5mg/kg), LLDT-8 (0.125, 0.25, 0.5mg/kg) consecutively administered by gavage for 15 days. The control group received saline. Mice were sacrificed on the 15th day post-administration and blood, liver, kidney, spleen, testis and epididymis were collected. The main lobe of liver, kidney, spleen and epididymis were fixed in 10% neutral buffered formalin for histological examination, the left testicle was fixed in Davidson’s buffer for 16 hours followed by 10% neutral buffered formalin. Tissue sections were stained with hematoxylin and eosin (H&E). Remaining tissues were stored at -80 °C for RNA and protein extraction.
Supplementary Figure S1 Comparison of testicular toxicity between triptolide(TL) and LLDT-8. Mice (n=3) were weighted before sacrificed on the 15th day post-administration of triptolide, LLDT-8 or saline. The testes were collected and weighted. […] (G-H) Comparison of epididymis weight between triptolide and LLDT-8. Significant difference was determined by one-way Anova, mean ± SD. * p<0.05, *** p<0.001 vs Saline group. # p<0.05, ## p<0.01, ### p<0.001 vs T8 group at the same dosage.

| SMILES | effect of CYP inhibitor on the metabolism of LLDT-8 [1] | testis morphology (H&E) [2] |
| --- | --- | --- |
| Nn1nnc2ccccc21 [aminobenzotriazole] | inhibited |  |
| Cc1ncsc1CCCl [clomethiazole] | inhibited; also recorded: seems to completely inhibit |  |
| CC(=O)N1CCN(c2ccc(OCC3COC(Cn4ccnc4)(c4ccc(Cl)cc4Cl)O3)cc2)CC1 (stereo not drawn) [ketoconazole] | inhibited |  |
| COc1ccc2[nH]c([S+]([O-])Cc3ncc(C)c(OC)c3C)nc2c1 (stereo not drawn) [omeprazole] | inhibited |  |
| C=C[C@H]1C[N@@]2CC[C@H]1C[C@@H]2[C@@H](O)c1ccnc2ccc(OC)cc12 [quinidine] | inhibited |  |
| CC(C)[C@]12O[C@H]1[C@@H]1O[C@]13[C@]1(O[C@H]1C[C@H]1C4=C(CC[C@@]13C)C(=O)OC4)[C@@H]2O [triptolide] |  | induced severe testicular injury |
